Assay results taken from publication PMC8545111, “Molecular Basis of the Versatile Regulatory Mechanism of HtrA-Type Protease AlgW from Pseudomonas aeruginosa” (mBio, 2021).
Non-standard residues stand in square brackets, D forms with d. Residues, ends and D or L forms follow the SMILES beside them. *: point of attachment. pNA = O=[N+]([O-])c1ccc(N*)cc1; 2Abz = Nc1ccccc1C(=O)O

Tests used:
DegS = assay: Rse- protease degradation assay; format: biochemical, Escherichia coli; settings: DegS 25 μM, phosphate buffer pH 7.5, 37°C
Description: (§1) FIG 1 Degradation of MucA and MucB by AlgW in response to the peptides and lipid signals. (A and B) MucB/RseB (130 μM) was cleaved by AlgW/DegS (25 μM) in the presence of different agonist combinations, including lipid-A (100 μM), lipid-like detergent DDM (400 μM), decapeptide SVRDELRWVF (100 μM), and decapeptide combined with lipid-A or DDM. (C and D) MucB/RseB-protected MucA^peri/RseA^peri degradation by AlgW/DegS in the presence of different lengths of the activating peptides in a time-dependent manner. MucA^peri (125 μM), AlgW (25 μM), MucB (130 μM), activation peptides (tripeptide WVF or decapeptide SVRDELRWVF, 100 μM), and lipid-A (100 μM) were incubated at 37°C in a time-dependent manner in buffer (25 mM Tris-HCl pH 7.5, 150 mM NaCl). Similarly, RseA^peri (125 μM) was cleaved by DegS (25 μM) in the presences of RseB (130 μM), activation peptides (tripeptide YYF or decapeptide DNRDGNVYYF, 100 μM), and lipid-A (100 μM) at 37°C in a time-dependent manner in a phosphate buffer containing 50 mM NaHPO4 (pH 7.5), 200 mM NaCl, 10% glycerol, and 4 mM EDTA. (E and F) MucA^peri/RseA^peri was cleaved by AlgW/DegS in the presence of different agonist combinations in a time-dependent manner. MucA^peri (125 μM), AlgW (25 μM), activation decapeptide SVRDELRWVF (100 μM), and lipid-A (100 μM) were incubated at 37°C in a time-dependent manner in buffer. […]

AlgW = assay: Muc- protease degradation assay; format: biochemical, Pseudomonas aeruginosa; settings: MucB 130 μM, AlgW 25 μM; lipid-A 100 μM, DDM 400 μM or decapeptide 100 μM; 25 mM Tris-HCl pH 7.5, 150 mM NaCl, 37°C; 30 min; gel bands
Description: as §1

AlgW-DegS-LA (63–78) = test system: T1, AlgW-DegS-LA (63–78); assay: Fluorogenic Abz-VLAG-pNA cleavage by peptide-activated AlgW and LA loop mutants (200 nM), 25 mM Tris pH 7.5, 150 mM NaCl, 37°C, Michaelis-Menten fit.; format: biochemical; settings: n = 3
T1 construct: residues 30-389; LA loop 76-97 replaced by the corresponding region 63-78 of DegS
Description: Based on the identified MucA and MucB cleavage sites for AlgW ([6], [13]), self-quenching fluorogenic tetrapeptides derived from 134-VLAG-137 of MucA (Abz-VLAG-pNA), 211-TVAW-214 of MucB (Abz-TVAW-pNA), and alanine tetrapeptide (Abz-AAAA-pNA) were synthesized and subjected to real-time measurement of AlgW proteolytic activity in the presence of excessive peptides (10 mM) (Fig. 2A). Compared with the negative-control group (using Abz-AAAA-pNA substrate), both Abz-VLAG-pNA and Abz-TVAW-pNA could be efficiently cleaved by AlgW. […]
For the enzyme mechanism of AlgW (30–389) and mutants, two internally quenched fluorescent peptide substrates incorporating the peptidase cleavage site of MucA/MucB, Abz-VLAG-pNA and Abz-TVAW-pNA, were designed and synthesized (GL Biochem Shanghai Ltd., China). In the intact peptide, the fluorescence of the anthraniloyl group is quenched by the P-nitroaniline (Abz is a fluorogenic group, and pNA is a quencher of fluorescence). This quenched fluorescence is liberated upon cleavage of peptide by 200 nM AlgW and mutants (200/3 nM for trimer), resulting in increased fluorescence that can then be monitored fluorometrically. […] The fluorescent degradation products were monitored at 60-s intervals at fluorescence wavelength—λex = 310 nm, λem = 420 nm ([41]). […]

[1] = molecular target: the molecule itself; assay: crystal structure; protein mixed with peptide activator (tripeptide WVF or decapeptide …) prior to crystallization; hanging-drop vapor diffusion at 18°C; molecular replacement

DNRDGNVYYF
RseB cleavage by DegS (DegS; RseB 130 μM, decapeptide 100 μM): no proteolysis was noticed

lipid-A
MucB cleavage by AlgW (AlgW): could be activated
RseA^peri degradation by DegS (DegS; RseA^peri 125 μM, lipid-A 100 μM with or without decapeptide DNRDGNVYYF 100 μM): did not display obvious direct or cooperative activation

CC(C)C[C@H](NC(=O)[C@@H](NC(=O)c1ccccc1N)C(C)C)C(=O)N[C@@H](C)C(=O)NCC(=O)Nc1ccc([N+](=O)[O-])cc1 [Abz-VLAG-pNA, anthraniloyl-Val-Leu-Ala-Gly-p-nitroaniline (quenched fluorogenic tetrapeptide, MucA 134-137)] (H-[2Abz]VLAG-pNA)
Km (AlgW-DegS-LA (63–78)): 12 ± 2.85 µM

B1: AlgW_(52-389), periplasmic soluble domain of AlgW for crystallization (enzyme)
chain: PVSYANAVSRAAPAVANLYTTKMVSKPSHPLFDDPMFRRFFGDNLPQQKRMESSLGSAVIMSAEGYLLTNNHVTAGADQIIVALRDGRETIAQLVGSDPETDLAVLKIDLKNLPAMTLGRSDGIRTGDVCLAIGNPFGVGQTVTMGIISATGRNQLGLNTYEDFIQTDAAINPGNSGGALVDAAGNLIGINTAIFSKSGGSQGIGFAIPTKLALEVMQSIIEHGQVIRGWLGVEVKALTPELAESLGLGETAGIVVAGVYRDGPAARGGLLPGDVILTIDKQEASDGRRSMNQVARTRPGQKISIVVLRNGQKVNLTAEVGLRPPPAPAPQQKQDGGE
notes: Vector pET22b-(LEVLFQ/GP)-6xHis has a PreScission site that allows removal of the His tag; source: E. coli BL21(DE3), purified (Ni-NTA, Superdex-75 SEC)
stoichiometry N [1]: 3

B2: AlgWS227A (inactive mutant of the periplasmic soluble domain of AlgW, for crystallization) (enzyme)
chain: PVSYANAVSRAAPAVANLYTTKMVSKPSHPLFDDPMFRRFFGDNLPQQKRMESSLGSAVIMSAEGYLLTNNHVTAGADQIIVALRDGRETIAQLVGSDPETDLAVLKIDLKNLPAMTLGRSDGIRTGDVCLAIGNPFGVGQTVTMGIISATGRNQLGLNTYEDFIQTDAAINPGNAGGALVDAAGNLIGINTAIFSKSGGSQGIGFAIPTKLALEVMQSIIEHGQVIRGWLGVEVKALTPELAESLGLGETAGIVVAGVYRDGPAARGGLLPGDVILTIDKQEASDGRRSMNQVARTRPGQKISIVVLRNGQKVNLTAEVGLRPPPAPAPQQKQDGGE
notes: AlgW of Pseudomonas aeruginosa, residues 52-389 (construct for crystallization), catalytic serine S227 changed to alanine; source: E. coli BL21(DE3), purified (Ni-NTA, Superdex-75 SEC)
stoichiometry N [1]: 3
